The numbers were not newly measured in patent US20240058414A1, “METHODS OF TREATING MELANOCORTIN-4 RECEPTOR PATHWAY-ASSOCIATED DISORDERS” (RHYTHM PHARMACEUTICALS, INC., priority 2020, published 2024), which cites them from elsewhere.

The conditions of series [1]: patients with POMC and LEPR deficiency obesity, earlier pivotal studies.
The conditions of series [2]: clinical trials; Chen et al. J. Clin. Endocrinol. Metab. 2015.

`CC(=O)N[C@@H](CCCNC(=N)N)C(=O)N[C@H]1CSSC[C@@H](C(N)=O)NC(=O)[C@H](Cc2c[nH]c3ccccc23)NC(=O)[C@H](CCCNC(=N)N)NC(=O)[C@@H](Cc2ccccc2)NC(=O)[C@H](Cc2cnc[nH]2)NC(=O)[C@@H](C)NC1=O` [setmelanotide, Ac-Arg-c(Cys-D-Ala-His-D-Phe-Arg-Trp-Cys)-NH2]: in series [1], the reduction in hunger result is “statistically significant and clinically meaningful reduction in hunger”; the weight loss entry is “rapid and sustained significant and clinically meaningful weight loss”. The “adverse effect on blood pressure” value in series [2] is recorded as “has not been shown to adversely affect blood pressure”.
